{
  "source": "patent US5665721A",
  "about": "“Heterocyclic substituted cyclopentane compounds” (Abbott Laboratories, priority 1995, dated 1997)",
  "origin": "cited, not measured here",
  "tested_on": "adenosine kinase",
  "settings": "literature; cited from earlier work",
  "data": [
    {"smiles": "Nc1ncnc2c1c(I)cn2[C@@H]1O[C@H](CO)[C@@H](O)[C@H]1O", "note": "[5-iodotubercidin]", "values": [
      {"measurement": "reported to inhibit adenosine kinase (in words)", "result": "most potent"}
    ]},
    {"smiles": "NC[C@H]1O[C@@H](n2cnc3c(N)ncnc32)[C@H](O)[C@@H]1O", "note": "[5'-amino,5'-deoxyadenosine]", "values": [
      {"measurement": "reported to inhibit adenosine kinase (in words)", "result": "most potent"}
    ]}
  ]
}
